Assay results from BindingDB's records for doi:10.7270/Q2HM57BR (D3R/Abbott, 2015).
pKd: −log10 of the molar value.

Biological target: T1, UDP-3-O-acyl-N-acetylglucosamine deacetylase (Pseudomonas aeruginosa (strain ATCC 15692 / DSM 22644 / CIP 104116 / JCM 14847 / LMG 12228 / 1C / PRS 101 / PAO1), UniProt P47205)
T1 sequence (P47205 whole entry): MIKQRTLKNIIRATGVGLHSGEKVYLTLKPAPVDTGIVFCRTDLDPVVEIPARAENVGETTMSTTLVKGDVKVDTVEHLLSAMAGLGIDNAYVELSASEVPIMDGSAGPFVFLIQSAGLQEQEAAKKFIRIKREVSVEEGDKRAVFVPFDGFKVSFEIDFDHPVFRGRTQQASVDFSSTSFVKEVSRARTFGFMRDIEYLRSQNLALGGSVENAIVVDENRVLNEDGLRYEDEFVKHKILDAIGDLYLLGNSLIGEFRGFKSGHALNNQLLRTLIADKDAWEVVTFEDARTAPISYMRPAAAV
Assay: Thermofluor_Method1

pKd | SMILES
5.82 | O=C(NO)[C@H]1COC(c2cc3cc(F)ccc3[nH]2)=N1 [CS272]
5.54 | O=C(NO)c1csc(-c2ccc(F)c(C(F)(F)F)c2)n1 [CS277]
< 4.00 | CC1(CNC(=O)[C@H](CN)NC(=O)c2ccc(-c3ccc(Br)cc3)cc2)NC(=O)NC1=O (stereo partly specified) [CS267]
< 4.00 | CC1(CNC(=O)c2ccc(-c3ccc(Br)cc3)cc2)NC(=O)NC1=O (stereo unspecified) [CS23]
< 4.00 | O=C(NO)[C@H]1COC(c2ccc(OCc3cccc(F)c3)c(OC(F)(F)F)c2)=N1 [CS269]
4.55 | O=C(NO)C1=C[SiH2]C(c2ccc(F)cc2)=N1 (stereo unspecified) [CS276]
< 4.00 | CC1(CNC(=O)[C@H](CN)NC(=O)c2ccc(C#CC#Cc3ccccc3)cc2)NC(=O)NC1=O (stereo partly specified) [CS265]
4.67 | O=C(NO)c1csc(-c2ccc(OC(F)(F)F)c(Cl)c2)n1 [CS275]
5.99 | O=C(NO)[C@H]1COC(c2ccc(F)c(C(F)(F)F)c2)=N1 [CS271]
5.14 | O=C(NO)[C@H]1COC(c2ccc([N+](=O)[O-])cc2)=N1 [CS268]
7.48 | C[C@@H](O)[C@H](NC(=O)c1ccc(-c2ccc(Br)cc2)cc1)C(=O)NO [CS258]
8.08 | C[C@@H](O)[C@H](NC(=O)c1ccc(C#CC#Cc2ccccc2)cc1)C(=O)NO [CS257]
4.81 | CCCc1ccc(-c2ccc(C3=N[C@@H](C(=O)NO)CO3)cc2)cc1 [CS274]
< 4.00 | CC1(CNC(=O)c2ccc(-c3ccccc3)cc2)NC(=O)NC1=O (stereo unspecified) [CS21]
7.23 | NC[C@H](NC(=O)c1ccc(C#CC#Cc2ccccc2)cc1)C(=O)NO [CS252]
4.55 | CN(C)c1ccc(-c2nc(C(=O)NO)cs2)cc1 [CS278]

pKd | SMILES
4.19 | CC1(CNC(=O)c2ccc(C#CC#Cc3ccccc3)cc2)NC(=O)NC1=O (stereo unspecified) [CS243]
5.42 | O=C(NO)[C@H]1COC(c2ccc(OC(F)(F)F)c(Cl)c2)=N1 [CS270]
< 4.00 | CC1(CNC(=O)[C@H](CN)NC(=O)c2ccc(-c3ccccc3)cc2)NC(=O)NC1=O (stereo partly specified) [CS264]
6.41 | NC[C@H](NC(=O)c1ccc(-c2ccccc2)cc1)C(=O)NO [CS249]
4.95 | O=C(NO)[C@H]1COC(c2ccc(F)cc2)=N1 [CS279]
< 4.00 | C[C@@H](O)[C@H](NC(=O)c1ccc(-c2ccc(Br)cc2)cc1)C(=O)NCC1(C)NC(=O)NC1=O (stereo partly specified) [CS256]
6.72 | NC[C@H](NC(=O)c1ccc(-c2ccc(Br)cc2)cc1)C(=O)NO [CS250]
< 4.00 | CN(C)c1ccc(C2=N[C@@H](C(=O)NO)CO2)cc1 [CS273]
< 4.00 | C[C@@H](O)[C@H](NC(=O)c1ccc(C#CC#Cc2ccccc2)cc1)C(=O)NCC1(C)NC(=O)NC1=O (stereo partly specified) [CS255]
< 4.00 | C[C@@H](O)[C@H](NC(=O)c1ccc(-c2ccccc2)cc1)C(=O)NCC1(C)NC(=O)NC1=O (stereo partly specified) [CS253]
< 4.00 | C[C@@H](O)[C@H](NC(=O)c1ccc(C#Cc2ccccc2)cc1)C(=O)NCC1(C)NC(=O)NC1=O (stereo partly specified) [CS254]
< 4.00 | CC1(CNC(=O)[C@H](CN)NC(=O)c2ccc(C#Cc3ccccc3)cc2)NC(=O)NC1=O (stereo partly specified) [CS266]
7.70 | C[C@@H](O)[C@H](NC(=O)c1ccc(C#Cc2ccccc2)cc1)C(=O)NO [CS259]
4.03 | CC1(CNC(=O)c2ccc(C#Cc3ccccc3)cc2)NC(=O)NC1=O (stereo unspecified) [CS22]
7.13 | C[C@@H](O)[C@H](NC(=O)c1ccc(-c2ccccc2)cc1)C(=O)NO [CS263]
